The source of these data is patent US11925656B2, “Biological total joint replacement” (priority 2014, dated 2024).

SMILES strings stand for the structures. “Also recorded” adds a separate entry of the source.

For one data set, the system named is human osteoblasts. To be noted: in vitro, dose related; cited from earlier work.
The subject of data set [1] is lubricin. Put plainly: Lubricin in synovium by ELISA, rabbit arthritis model. To be noted: prophylactic groups, oral days 1-42, vs control. It is filed as in vivo. The text has this: (§1) The study was approved by the Institutional Animal Care and Use Committee (IACUC) of Thomas D. Morris, Inc. 28 New Zeeland White rabbits were selected for the study. Six such were randomly assigned to one of four groups; prophylactic cyanidin-3-glycoside (C3G)(referred to figures as Cl 1-42), prophylactic protocatechuic acid (PCA)(referred to in figures as PCA 1-42), therapeutic C3G (referred to in figures as Cl 42-70), and therapeutic PCA (referred to in figures as PCA 42-70). There were four controls, two each to the prophylactic and therapeutic groups.
(§2) The prophylactic groups were given PROC3G™ by Chromadex™ at a dose of 30 mg/kg of body weight of either C3G or PCA by mouth, 7 times per week for 42 days. The therapeutic groups' treatment was initiated on day 42 with a daily dose of PROC3G™ by Chromadex™ 7 times per week for 4 weeks. The dose of 30 mg of cyanidin-3-glucoside per kg of body weight calculates to be 0.177 millimoles per kg body weight. The dose of PCA was the same in terms of millimoles per kg body weight.
(§3) The experimental rabbits underwent surgery with an intent to create a severe degenerative arthritis by cutting the medial collateral ligament, the anterior cruciate ligament and removing the medial meniscus. A partial thickness laceration was made longitudinally on the lateral femoral condyle for future assessment of potential for repair. The surgery was performed by two licensed veterinarians. One surgeon was very experienced. The other surgeon was a recent graduate.
(§4) At necropsy, the synovial fluid was harvested percutaneously and upon arthrotomy. The synovium was harvested from posterior compartment. The patella and adjacent synovium was procured as a separate specimen as was the medial and lateral condyle.
The synovial fluid and half of the synovium was frozen and sent to BioBoston Laboratory for chemical analysis. The other half of the synovium and bone was sent to McClinchery Histology in Stockbridge, Mich. for histological preparation and staining. […]
(§5) Synovial Tissue (Synovium)—Detected by ELISA
Background: An ELISA detects its analyte on a solid surface through an enzyme-linked reagent.

The test system of the next data set is IL-1 beta. Put plainly: IL-1 beta in synovium by ELISA, rabbit arthritis model. Type of data set: in vivo. To be noted: therapeutic groups, oral days 42-70, vs control.
Text: as §1
(§6) The prophylactic groups were given PROC3G™ by Chromadex™ at a dose of 30 mg/kg of body weight of either C3G or PCA by mouth, 7 times per week for 42 days. The therapeutic groups' treatment was initiated on day 42 with a daily dose of PROC3G™ by Chromadex™ 7 times per week for 4 weeks. The dose of 30 mg of cyanidin-3-glucoside per kg of body weight calculates to be 0.177 millimoles per kg body weight. The dose of PCA was the same in terms of millimoles per kg body weight. […]
Interleukin-1 beta (IL-1p) also known as catabolic, is a cytokine protein. […] Increased production of IL-1B causes a number of different auto-inflammatory syndromes. • Synovial Fluid—Detected by ELISA • Levels of IL-1 beta were decreased in all groups. See FIG. 2A. • Synovial Tissue (Synovium)—Detected by ELISA

The conditions of data set [2]: more powerful than vitamin E; cited from earlier work.
A further data set concerns IGF-1 gene expression. Briefly: IGF-1 gene expression in synovium by real-time PCR, rabbit arthritis model. The settings on record: rabbits, either oral or intraarticular route. Type of data set: in vivo.
Text: as §1, §6
See FIG. 5B. • Synovial Tissue (Synovium)-Detected by ELISA • IGF-1 was increased in all groups. See FIG. 8B. • Synovial Tissue (Synovium)-Gene Expression Level Detected by Real-Time PCR • IGF-1 was increased in all groups.
On the technique in general: In qPCR the cycle at which signal appears reflects the starting amount.

The test system of the next data set is lymphocytes. Put plainly: Number of lymphocytes in synovial fluid, rabbit arthritis model. Type of data set: in vivo.
Text: as §1, §2, §3, §4
In addition to testing for the increase or decrease of various factors and cytokines, tests were run to count the number of white blood cells, including polymorphonuclear leukocytes (PMN), macrophages (Mac) and lymphocytes (Lym). […]

The test system of the next data set is TNF-alpha. Put plainly: TNF-alpha in synovial fluid by ELISA, rabbit arthritis model. It is filed as in vivo. The settings on record: therapeutic groups, oral 4 weeks, vs control; not statistically significant.
Text: as §1, §2
(§7) The experimental rabbits underwent surgery with an intent to create a severe degenerative arthritis by cutting the medial collateral ligament, the anterior cruciate ligament and removing the medial meniscus. […]
Synovial Fluid—Detected by ELISA

A further data set relates to MRSA and Pseudomonas. To be noted: tape-stripped rodent backs contaminated with MRSA and Pseudomonas; cited from earlier work.
Another data set deals with ADAMTS-5 gene expression. Put plainly: ADAMTS-5 gene expression in synovium by real-time PCR, rabbit arthritis model. It is filed as in vivo. To be noted: therapeutic groups, oral days 42-70, vs control.
Text: as §1, §2, §7
Synovial Tissue (Synovium)—Gene Expression Level Detected by Real-Time PCR

Another data set relates to aggrecan. Put plainly: Aggrecan expression in patellar cartilage, rabbit arthritis model. It is filed as in vivo. The settings on record: prophylactic, minimum of 30 mg/kilo gram body weight by oral route, compared to the controls.
Text: as §1, §2
(§8) The experimental rabbits underwent surgery with an intent to create a severe degenerative arthritis by cutting the medial collateral ligament, the anterior cruciate ligament and removing the medial meniscus. A partial thickness laceration was made longitudinally on the lateral femoral condyle for future assessment of potential for repair. […]

In a further data set the test system is MMP-3. Put plainly: MMP-3 expression in cartilage, histochemical staining and scoring, rabbit arthritis model. It is filed as in vivo.
Text: as §1, §2, §3, §4
(§9) The synovial fluid and half of the synovium was frozen and sent to BioBoston Laboratory for chemical analysis. The other half of the synovium and bone was sent to McClinchery Histology in Stockbridge, Mich. for histological preparation and staining. Patellar slides were sent to BioBoston Contract Laboratories for histochemical staining and ICRS grading. Sample slides were examined for Lubricin at Myron Spector laboratory.
MMP3 is known as matrix metallopeptidase 3, or stromelysin 1 or progelatinase. Proteins of the matrix metalloproteinase (MMP) family are involved in the breakdown of 20 extracellular matrix in normal physiological processes, such as embryonic development, reproduction, and tissue remodeling, as well as in disease processes, such as arthritis and metastasis. […] See FIG. 2C. • Synovial Tissue (Synovium)—Detected by ELISA • MMP-3 levels were reduced in all four groups. See FIG. 9B. • Synovial Tissue (Synovium)—Gene Expression Level Detected by Real-Time PCR • MMP-3 gene expression was decreased in all groups. See FIG. 13A. • Histochemical Scoring Analysis

The subject of data set [3] is lubricin. Briefly: Lubricin expression in cartilage, immunohistochemical staining, rabbit arthritis model. It is filed as in vivo. To be noted: prophylactic, minimum of 30 mg/kilo gram body weight by oral route, compared to the controls.
Text: as §1, §2, §8

Another data set relates to collagen II. Put plainly: Collagen II expression in cartilage, immunohistochemical staining, rabbit arthritis model. It is filed as in vivo. The settings on record: prophylactic, minimum of 30 mg/kilo gram body weight by oral route, compared to the controls.
Text: as §1, §2, §8

Another data set concerns MMP3. Briefly: MMP3 in synovial fluid by ELISA, rabbit arthritis model. Type of data set: in vivo. To be noted: therapeutic groups, oral days 42-70, vs control.
Text: as §1, §6
MMP3 is known as matrix metallopeptidase 3, or stromelysin 1 or progelatinase. […] See FIG. 2C. • Synovial Tissue (Synovium)—Detected by ELISA • MMP-3 levels were reduced in all four groups. See FIG. 9B. • Synovial Tissue (Synovium)—Gene Expression Level Detected by Real-Time PCR • MMP-3 gene expression was decreased in all groups. […]

The conditions of data set [4]: human; cited from earlier work.
For another data set, the system named is MMP-13. Briefly: MMP-13 in synovium by ELISA, rabbit surgically induced knee arthritis. Type of data set: in vivo. To be noted: vs untreated control, not statistically significant.
Text: as §1, §2, §3, §4, §9, §5

Setting [5] is: prophylactic groups, oral days 1-42, vs control.
[6] abbreviates: therapeutic groups, oral days 42-70, vs control.

As for `O=C(O)c1ccc(O)c(O)c1` [PCA, Protocatechuic acid (3,4-dihydroxybenzoic acid)], the “bone making markers in human osteoblasts” value in the data set on human osteoblasts is given as “produce bone making markers”. Moreover, the lubricin in synovium result in the data set on lubricin [1] is reported as “increased”. Besides, the “levels of IL-1 beta in synovium” value with IL-1 beta is given as “decreased”. Besides, the “antioxidant power relative to vitamin E” value in data set [2] is on record as 10 ×. For the same molecule, in the data set with IGF-1 gene expression, the “IGF-1 genetic expression in the synovium” value is reported as “increase”. For the same molecule, the “number of lymphocytes in synovial fluid” value in the data set on lymphocytes (setting [5]) and with lymphocytes (setting [6]) was “decreased” throughout. Moreover, the “TNF-alpha levels in synovial fluid” value with TNF-alpha was “slight increase”. The “collagen layer in the dermis” value with MRSA and Pseudomonas is “production of collagen layer in the dermis”. For the same molecule, in the data set with MRSA and Pseudomonas, the “re-epithelialization of the skin wound” value is reported as “re-epithelialization of the wound”. Also, the “time to disinfect the wound” value with MRSA and Pseudomonas is reported as 2 days. Further, the “ADAMTS-5 gene expression in synovium” value in the data set with ADAMTS-5 gene expression was “decreased”. Also, the “aggrecan in articular cartilage ECM” value with aggrecan is given as “increased”. For the same molecule, the “histochemical staining for the presence of MMP-3 in cartilage” value with MMP-3 (prophylactic groups, oral days 1-42) is on record as “no staining”; with MMP-3 (therapeutic groups, oral days 42-70), “no staining”. Moreover, the “MMP-3 expression in cartilage” value with MMP-3 (setting [5]) and in the data set on MMP-3 (setting [6]) was “reduced” throughout. Further, in the data set with lubricin [3], the “lubricin on the articular cartilage surface” value is “increased”. Besides, in the data set on collagen II, the “type II collagen in articular cartilage ECM” value is listed as “increased”. The “MMP3 in synovial fluid” value in the data set with MMP3 is “decreased”. For the same molecule, the toxicity entry in data set [4] is “non-toxic; also recorded: no known human toxic effects”. Besides, the “MMP-13 levels in synovium” value in the data set with MMP-13 (prophylactic groups, oral 7 times per week days 1-42 (C3G 30 mg/kg, PCA 26.4 mg/kg)) is reported as “very slightly decreased”; in the data set with MMP-13 (therapeutic groups, oral 7 times per week days 42-70 (C3G 30 mg/kg, PCA 26.4 mg/kg)), “increased slightly”.
